Experimental data reported in patent US8877739B2, “Prophylactic agent or therapeutic agent for diabetes or obesity” (Ajinomoto Co., Inc., priority 2010, dated 2014).
Values belong to the compound of their own block, whether it stands above or below them.

Key:
Type in all cases: cell-based
[1] = system: Human cecum-derived cell line NCI-H716; assay: GLP-1 secretion promoting activity in NCI-H716 cells; details: 37° C., 60 minutes
Method: Human cecum-derived cell line NCI-H716 (ATCC No. CCL-251) was cultured in 10% FBS-containing DMEM/Ham's F-12 medium at 37° C. in the presence of 5% CO2. The NCI-H716 cells were plated on a poly-D-lysine-coated 96-well plate in 100,000 cells/well, followed by culturing for 2 days. Prior to the addition of a sample, the wells were washed with Hepes buffer (20 mM Hepes, 146 mM NaCl, 5 mM KCl, 1.5 mM CaCl2, 1 mM MgSO4, 5.5 mM D-glucose, 0.2% BSA, pH 7.4). Then, 50 μl of a solution of the sample in the same buffer, and incubation was performed at 37° C. for 60 minutes. Compounds No. 1 (20 mM), No. 7 (20 mM), No. 21 (20 mM), No. 22 (20 mM), No. 33 (7.5 mM) and No. 34 (7.5 mM) listed in TABLE 1 were used as the sample. As for control, Hepes buffer was used. After the supernatant was collected, the cells were precipitated by centrifugation (5000×g, 1 minute) and the supernatant was recovered. The GLP-1 concentration in the supernatant was measured as follows by the method for GLP-1 quantification using the GLP-1 receptor gene expression cells.
Human GLP-1 receptor gene (SEQ ID NO: 1) was incorporated into pcDNA3.1 in a conventional manner (López de Maturana R, Willshaw A, Kuntzsch A, Rudolph R, Donnelly D. J. Biol. Chem. 2003 Mar. 21; 278 (12): 10195-200.) to construct human GLP-1 receptor gene expression plasmid hGLP-1R/pcDNA3.1. Also, the chimeric gene (SEQ ID NO: 2) of human Gα15 gene and human gustducin gene was incorporated into pcDNA3.1 to construct G-protein expression plasmid Gα15-gust/pcDNA3.1. Using a transfection reagent FuGene 6 (Roche Japan, Inc.), hGLP-1R/pcDNA3.1 and Gα15-gust44/pcDNA3.1 were cotransfected to HEK293E cells (ATCC No. CRL-10852). After incubation in a CO2 incubator for 4 to 6 hours, the cells were suspended in 5% FBS-containing DMEM/Ham F12 and plated onto a poly-D-lysine-coated 96-well plate in 70,000 cells/well. After incubation for 24 hours in a CO2 incubator, changes in fluorescence intensity were begun to monitor immediately after the addition of a sample, using a FlexStation (Molecular Devices) according to the Ca^2+ fluorescence indicator FLIPR Calcium 4 Assay Kit protocol (Molecular Devices). Concentration dependence in response to changes in fluorescence intensity of human GLP-1 (7-36 amide; Peptide Institute, Inc.) was determined and used as a standard curve for quantitative determination of the sample. The expression plasmid used here may be constructed by the methods described in, e.g., Proc. Natl. Acad. Sci. USA. 1992 Sep. 15; 89 (18): 8641-5, FEBS Letters Volume 373, Issue 29, October 1995, Pages 182-186), The Journal of Neuroscience, Aug. 13, 2003, 23 (19): 7376-7380), etc.
The amount of GLP-1 secreted when the measurement value of control obtained using the buffer was made 1 was expressed as a relative value.

[2] = system: Human cecum-derived cell line NCI-H716; assay: CCK secretion promoting activity in NCI-H716 cells; details: 37° C., 30 minutes
Method: Human cecum-derived cell line NCI-H716 (ATCC No. CCL-251) was cultured in DMEM/Ham's F-12 medium containing 10% FBS at 37° C. in the presence of 5% CO2. The NCI-H716 cells were plated on a poly-L-lysine-coated 24-well plate in 600,000 cells/well, followed by culturing for 2 days. Prior to the addition of a sample, the wells were washed with Hepes buffer (20 mM Hepes, 146 mM NaCl, 5 mM KCl, 1.5 mM CaCl2, 1 mM MgSO4, 5.5 mM D-glucose, 0.02% BSA, pH 7.4). Then, 300 μl of a solution of the sample in the same buffer, and incubation was performed at 37° C. for 30 minutes. Compounds No. 1 (20 mM) No. 7 (2 mM), No. 21 (2 mM), No. 22 (2 mM), No. 33 (0.1 mM) and No. 34 (1 mM) listed in TABLE 2 were used as the sample. For control, Hepes buffer was used. After the supernatant was collected, the cells were precipitated by centrifugation (5000×g, 1 minute). The supernatant was recovered and lyophilized in a Speed Vac Concentrator from Savant Instruments Inc., and 60 μl of water was added thereto for dissolution. The CCK concentration in the solution was determined using an Enzyme Immunoassay Kit (EK-069-04; PHOENIX PHARMACEUTICALS).
The amount of CCK secreted when the measurement value of control obtained using the buffer was made 1 was expressed as a relative value.

[3] = target: T1, human CaSR (Homo sapiens, UniProt P41180); assay: Evaluation of CaSR agonist activity (Ca2+ fluorescence, FLIPR, 293E cells transfected with hCaSR/pcDNA3.1)
T1 construct: expressed in transfected cells; host or cells: 293E cells (HEK293 cells expressing EBNA1, ATCC No. CRL-10852), transient transfection
T1 sequence (P41180 20-1078): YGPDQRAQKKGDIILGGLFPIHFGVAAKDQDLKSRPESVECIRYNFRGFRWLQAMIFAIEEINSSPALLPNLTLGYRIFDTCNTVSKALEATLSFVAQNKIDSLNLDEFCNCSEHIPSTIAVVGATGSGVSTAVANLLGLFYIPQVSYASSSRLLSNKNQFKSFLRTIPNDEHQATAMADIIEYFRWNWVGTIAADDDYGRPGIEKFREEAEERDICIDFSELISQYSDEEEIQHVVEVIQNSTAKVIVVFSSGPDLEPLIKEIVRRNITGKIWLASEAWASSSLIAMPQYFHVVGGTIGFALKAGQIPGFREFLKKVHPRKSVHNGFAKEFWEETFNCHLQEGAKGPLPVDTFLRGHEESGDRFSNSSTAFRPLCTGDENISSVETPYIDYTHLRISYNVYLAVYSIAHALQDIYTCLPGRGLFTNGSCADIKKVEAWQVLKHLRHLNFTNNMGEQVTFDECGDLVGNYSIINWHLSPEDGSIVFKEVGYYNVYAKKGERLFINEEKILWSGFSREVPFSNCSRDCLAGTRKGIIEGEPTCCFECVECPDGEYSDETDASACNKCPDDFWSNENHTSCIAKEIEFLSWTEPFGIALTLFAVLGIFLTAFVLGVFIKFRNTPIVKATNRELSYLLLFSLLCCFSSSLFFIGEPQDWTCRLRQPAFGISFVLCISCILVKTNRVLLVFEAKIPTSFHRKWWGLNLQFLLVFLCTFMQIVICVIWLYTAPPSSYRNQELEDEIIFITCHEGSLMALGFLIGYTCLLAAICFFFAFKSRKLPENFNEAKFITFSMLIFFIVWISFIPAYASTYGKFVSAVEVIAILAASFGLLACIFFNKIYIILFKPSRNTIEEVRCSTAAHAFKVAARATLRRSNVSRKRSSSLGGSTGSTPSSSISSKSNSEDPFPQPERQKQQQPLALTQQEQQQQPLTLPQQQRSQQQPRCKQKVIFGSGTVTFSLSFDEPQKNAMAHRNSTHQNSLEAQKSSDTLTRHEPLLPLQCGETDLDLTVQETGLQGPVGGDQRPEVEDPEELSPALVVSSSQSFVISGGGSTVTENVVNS
Method: The CaSR gene was prepared in accordance with the method described in Example 1 of WO 07/55393. Using the recombinant plasmid obtained, human CaSR expression plasmid hCaSR/pcDNA3.1 was prepared.
293E cells (HEK293 cells expressing EBNA1, ATCC No. CRL-10852) were cultured in DMEM (Dulbecco's Modified Eagle's Medium containing […], NACALAI TESQUE, INC.) containing 10% fetal calf serum, in the presence of 250 μg/ml of G418. The cells were spread on a Petri dish of 10 cm diameter in 1.8×10^6 cells/15 ml. After the cells were allowed to stand in a CO2 incubator (5% CO2, 37° C.) for 24 hours, human CaSR expression plasmid hCaSR/pcDNA3.1 was transfected with a transfection reagent Mirus TransIT 293 (Takara Bio Inc.). After the cells were allowed to stand in the CO2 incubator for 24 hours, the cells were collected by DMEM containing 10% fetal calf serum and plated on a poly-D-lysine coated 384 well plate (Falcon) in 15,000 cells/well. After the cells were allowed to stand in the CO2 incubator for 24 hours, the medium was removed. Then, 50 μL/well of Ca^2+ fluorescence indicator Calcium 4 Assay Kit (Molecular Devices) that was dissolved in an assay buffer (146 mM NaCl, 5 mM KCl, 1 mM MgSO4, 1 mg/ml glucose, 20 mM HEPES (pH 7.2) and 1.5 mM CaCl2) was added thereto, and allowed to stand at 37° C. for an hour and then at room temperature for 30 minutes to load the fluorescence indicator. The 384 well plate described above was transferred to FLIPR (Molecular Devices), and 12.5 μL/well of a compound that was dissolved in a 0.1% BSA containing-assay buffer was added thereto. Changes in fluorescence intensity were monitored for 3 minutes. Compound No. 20 was purchased from Bachem.

[4] = 293E cells expressing human CaSR, 1.5 mM CaCl2 assay buffer, Table 5
[5] = measured in a manner similar to Example III, Table 6

SMILES: N[C@@H](CCC(=O)Nc1cccc(S(=O)(=O)O)c1)C(=O)O [Compound 1, N^5-(3-sulfophenyl)-L-glutamine]
- Relative Value (amount of GLP-1 secreted, buffer control = 1) ([1]; sample 20 mM): 1.82
- Relative Value (amount of CCK secreted, buffer control = 1) ([2]; sample 20 mM): 2.16

SMILES: N[C@@H](CCC(=O)Nc1cc(Cl)cc(S(=O)(=O)O)c1O)C(=O)O [Compound 7, N^5-(5-chloro-2-hydroxy-3-sulfophenyl)-L-glutamine]
- Relative Value (amount of GLP-1 secreted, buffer control = 1) ([1]; sample 20 mM): 2.90
- Relative Value (amount of CCK secreted, buffer control = 1) ([2]; sample 2 mM): 1.99

SMILES: Cc1c(Cl)cc(NC(=O)CC[C@H](N)C(=O)O)cc1S(=O)(=O)O [Compound 21, N^5-(3-chloro-4-methyl-5-sulfophenyl)-L-glutamine]
- Relative Value (amount of GLP-1 secreted, buffer control = 1) ([1]; sample 20 mM): 4.38
- Relative Value (amount of CCK secreted, buffer control = 1) ([2]; sample 2 mM): 4.54

SMILES: Cc1c(Cl)cc(S(=O)(=O)O)cc1NC(=O)CC[C@H](N)C(=O)O [Compound 22, N^5-(3-chloro-2-methyl-5-sulfophenyl)-L-glutamine]
- Relative Value (amount of GLP-1 secreted, buffer control = 1) ([1]; sample 20 mM): 2.22
- Relative Value (amount of CCK secreted, buffer control = 1) ([2]; sample 2 mM): 2.49

SMILES: Cc1c(Cl)cc(NC(=O)OC[C@H](N)C(=O)O)cc1S(=O)(=O)O [Compound 33, O-{[(3-chloro-4-methyl-5-sulfophenyl)amino]carbonyl}-L-serine]
- Relative Value (amount of GLP-1 secreted, buffer control = 1) ([1]; sample 7.5 mM): 1.87
- Relative Value (amount of CCK secreted, buffer control = 1) ([2]; sample 0.1 mM): 1.51

SMILES: N[C@@H](COC(=O)Nc1cc(Cl)cc(S(=O)(=O)O)c1O)C(=O)O [Compound 34]
- Relative Value (amount of GLP-1 secreted, buffer control = 1) ([1]; sample 7.5 mM): 2.88
- Relative Value (amount of CCK secreted, buffer control = 1) ([2]; sample 1 mM): 1.77

- EC50 [3, 4]: 31 nM
SMILES: N[C@@H](CCC(=O)N(O)c1cccc(S(=O)(=O)O)c1)C(=O)O [Compound 42, N^5-hydroxy-N^5-(3-sulfophenyl)-L-glutamine]

- EC50 [3, 4]: 43 nM
SMILES: N[C@@H](COC(=O)N(O)c1cccc(S(=O)(=O)O)c1)C(=O)O [Compound 43, 0-{[hydroxy(3-sulfophenyl)amino]carbonyl}-L-serine]

- EC50 [3, 5]: 23 nM
SMILES: COC(=O)[C@@H](N)CCC(=O)Nc1cccc(S(=O)(=O)O)c1 [Compound 44, 3-[(4S)-4-amino-5-methoxy-5-oxopentanamido]benzene-1-sulfonic acid]

- EC50 [3, 5]: 110 nM
SMILES: COC(=O)[C@@H](N)COC(=O)Nc1cc(Cl)c(C)c(S(=O)(=O)O)c1 [Compound 49, 5-({[(2S)-2-amino-3-methoxy-3-oxopropoxy]carbonyl}amino)-3-chloro-2-methylbenzene-1-sulfonic acid]

- EC50 [3, 5]: 4 nM
SMILES: CCOC(=O)[C@@H](N)CCC(=O)Nc1cc(Cl)cc(S(=O)(=O)O)c1O [Compound 50, 3-[(4S)-4-amino-5-ethoxy-5-oxopentanamido]-5-chloro-2-hydroxybenzene-1-sulfonic acid]
